Laboratory results reported in patent publication EP0726261A1, “Herbidical 1,2,4 thiadiazoles” (American Cyanamid Company, priority 1995, dated 1996).

Experiments:
Format in all cases: in vivo
Chenopodium album [1] = experiment: Preemergence herbicidal activity (Example 67); details: pre, 800 g/ha
Protocol: (§1) Herbicidal evaluation of compounds of the invention is conducted on the following plant species:
(§2) The soil is a prepared horticultural substrate containing 30% peat, 20% volcanic clay, 30% bark residues and 20% polyamide/styromull in a 1:3 mixture with loamy sand. Test solutions are prepared by dissolving the test compound in acetone containing 0.5% of an alkylphenol/ethylene oxide condensate under the trademark, TRITON® X-155, and diluting with water as needed. The test solutions are applied as a spray to the 3-6 week old seedling plants at dose rates corresponding to 800g/ha in a volume equivalent to 400 L/ha. A pneumatic spraying device employing a Teejet nozzle SS 8002E operating at 3 bar is used for a predetermined time. After spraying, the treated plants are placed on greenhouse benches and cared for in a manner commensurate with conventional greenhouse practice. After 10-21 days, the treated plants are evaluated and rated according to the rating system provided below.
(§3) The soil surface is then sprayed with test solutions as described in the postemergence evaluation hereinabove. After spraying, the treated cups are placed on greenhouse benches and cared for in the manner commensurate with conventional greenhouse practice. About 1-3 weeks after treatment the cups are evaluated and rated according to the rating system provided hereinabove.

Galium aparine [2] = experiment: Preemergence herbicidal activity (Example 67); details: pre, 800 g/ha
Protocol: as §1, §2, §3

Abutilon theophrasti [3] = experiment: Preemergence herbicidal activity (Example 67); details: pre, 800 g/ha
Protocol: as §1, §2, §3

Zea mays [4] = experiment: Preemergence herbicidal activity (Example 67); details: pre, 800 g/ha
Protocol: as §1, §2, §3

Helianthus annuus [5] = experiment: Preemergence herbicidal activity (Example 67); details: pre, 800 g/ha
Protocol: as §1, §2, §3

Veronica persica [6] = experiment: Preemergence herbicidal activity (Example 67); details: pre, 800 g/ha
Protocol: as §1, §2, §3

Ipomoea hederacea [7] = experiment: Preemergence herbicidal activity (Example 67); details: pre, 800 g/ha
Protocol: as §1, §2, §3

Amaranthus retroflexus [8] = experiment: Preemergence herbicidal activity (Example 67); details: pre, 800 g/ha
Protocol: as §1, §2, §3

Hordeum vulgare [9] = experiment: Preemergence herbicidal activity (Example 67); design: herbicide rating, HORVW: scale not given here; details: pre, 800 g/ha
Protocol: as §1, §2, §3

Triticum aestivum [10] = experiment: Preemergence herbicidal activity (Example 67); design: herbicide rating, TRZAW: scale not given here; details: pre, 800 g/ha
Protocol: as §1, §2, §3

Setaria viridis [11] = experiment: Postemergence herbicidal activity (Example 67); details: pos, 800 g/ha
Protocol: as §1, §2

Chenopodium album [12] = experiment: Postemergence herbicidal activity (Example 67); details: pos, 800 g/ha
Protocol: as §1, §2

Hordeum vulgare [13] = experiment: Postemergence herbicidal activity (Example 67); details: pos, 800 g/ha
Protocol: as §1, §2

Galium aparine [14] = experiment: Postemergence herbicidal activity (Example 67); details: pos, 800 g/ha
Protocol: as §1, §2

Abutilon theophrasti [15] = experiment: Postemergence herbicidal activity (Example 67); details: pos, 800 g/ha
Protocol: as §1, §2

Zea mays [16] = experiment: Postemergence herbicidal activity (Example 67); details: pos, 800 g/ha
Protocol: as §1, §2

Alopecurus myosuroides [17] = experiment: Postemergence herbicidal activity (Example 67); details: pos, 800 g/ha
Protocol: as §1, §2

Helianthus annuus [18] = experiment: Postemergence herbicidal activity (Example 67); details: pos, 800 g/ha
Protocol: as §1, §2

Veronica persica [19] = experiment: Postemergence herbicidal activity (Example 67); details: pos, 800 g/ha
Protocol: as §1, §2

Ipomoea hederacea [20] = experiment: Postemergence herbicidal activity (Example 67); details: pos, 800 g/ha
Protocol: as §1, §2

Triticum aestivum [21] = experiment: Postemergence herbicidal activity (Example 67); details: pos, 800 g/ha
Protocol: as §1, §2

Amaranthus retroflexus [22] = experiment: Postemergence herbicidal activity (Example 67); details: pos, 800 g/ha
Protocol: as §1, §2

Alopecurus myosuroides [23] = experiment: Preemergence herbicidal activity (Example 67); design: herbicide rating, ALOMY: scale not given here; details: pre, 800 g/ha
Protocol: as §1, §2, §3

Setaria viridis [24] = experiment: Preemergence herbicidal activity (Example 67); design: herbicide rating, SETVI: scale not given here; details: pre, 800 g/ha
Protocol: as §1, §2, §3

[25] = rated about 1-3 weeks after treatment

CCCCc1nsc(C(=O)NCc2cccs2)n1 [Example 31]
herbicide rating, CHEAL (Chenopodium album [1]; [25]): 0 | herbicide rating, GALAP (Galium aparine [2]; [25]): 0 | herbicide rating, ABUTH (Abutilon theophrasti [3]; [25]): 0 | herbicide rating, ZEAMX (Zea mays [4]; [25]): 0 | herbicide rating, HELAN (Helianthus annuus [5]; [25]): 0 | herbicide rating, VERPE (Veronica persica [6]; [25]): 0 | herbicide rating, IPOHE (Ipomoea hederacea [7]; [25]): 0 | herbicide rating, AMARE (Amaranthus retroflexus [8]; [25]): 0 | herbicide rating, HORVW (Hordeum vulgare [9]; [25]): 0 | herbicide rating, TRZAW (Triticum aestivum [10]; [25]): 0 | herbicide rating, SETVI (Setaria viridis [11]; rated after 10-21 days): 4 (30-44%) | herbicide rating, CHEAL (Chenopodium album [12]; rated after 10-21 days): 4 (30-44%) | herbicide rating, HORVW (Hordeum vulgare [13]; rated after 10-21 days): 0 | herbicide rating, GALAP (Galium aparine [14]; rated after 10-21 days): 2 (6-15%) | herbicide rating, ABUTH (Abutilon theophrasti [15]; rated after 10-21 days): 1 (1-5%) | herbicide rating, ZEAMX (Zea mays [16]; rated after 10-21 days): 1 (1-5%) | herbicide rating, ALOMY (Alopecurus myosuroides [17]; rated after 10-21 days): 2 (6-15%) | herbicide rating, HELAN (Helianthus annuus [18]; rated after 10-21 days): 2 (6-15%) | herbicide rating, VERPE (Veronica persica [19]; rated after 10-21 days): 0 | herbicide rating, IPOHE (Ipomoea hederacea [20]; rated after 10-21 days): 3 (16-29%) | herbicide rating, TRZAW (Triticum aestivum [21]; rated after 10-21 days): 2 (6-15%) | herbicide rating, AMARE (Amaranthus retroflexus [22]; rated after 10-21 days): 0 | herbicide rating, ALOMY (Alopecurus myosuroides [23]; [25]): 0 | herbicide rating, SETVI (Setaria viridis [24]; [25]): 0

O=C(Nc1ccccc1)c1nsc(-c2cccc(C(F)(F)F)c2)n1 [Example 64]
CHE AL rating (Chenopodium album [1]): 0 | GAL AP rating (Galium aparine [2]): 0 | ABU TH rating (Abutilon theophrasti [3]): 0 | ZEA MX rating (Zea mays [4]): 0 | HEL AN rating (Helianthus annuus [5]): 0 | VER PE rating (Veronica persica [6]): 0 | IPO HE rating (Ipomoea hederacea [7]): 3 (16-29%) | AMA RE rating (Amaranthus retroflexus [8]): 0 | HOR VW rating (Hordeum vulgare [9]): 0 | TRZ AW rating (Triticum aestivum [10]): 2 (6-15%) | SET VI rating (Setaria viridis [11]): 4 (30-44%) | CHE AL rating (Chenopodium album [12]): 0 | HOR VW rating (Hordeum vulgare [13]): 1 (1-5%) | GAL AP rating (Galium aparine [14]): 0 | ABU TH rating (Abutilon theophrasti [15]): 1 (1-5%) | ZEA MX rating (Zea mays [16]): 1 (1-5%) | ALO MY rating (Alopecurus myosuroides [17]): 2 (6-15%) | HEL AN rating (Helianthus annuus [18]): 0 | VER PE rating (Veronica persica [19]): 0 | IPO HE rating (Ipomoea hederacea [20]): 0 | TRZ AW rating (Triticum aestivum [21]): 2 (6-15%) | AMA RE rating (Amaranthus retroflexus [22]): 0 | ALO MY rating (Alopecurus myosuroides [23]): 0 | SET VI rating (Setaria viridis [24]): 2 (6-15%)

CC(NC(=O)c1nc(-c2cccc(F)c2)ns1)c1cccs1 (racemic) [Example 43]
CHE AL rating (Chenopodium album [1]): 4 (30-44%) | GAL AP rating (Galium aparine [2]): 2 (6-15%) | ABU TH rating (Abutilon theophrasti [3]): 0 | ZEA MX rating (Zea mays [4]): 0 | HEL AN rating (Helianthus annuus [5]): 0 | VER PE rating (Veronica persica [6]): 2 (6-15%) | IPO HE rating (Ipomoea hederacea [7]): 2 (6-15%) | AMA RE rating (Amaranthus retroflexus [8]): 0 | HOR VW rating (Hordeum vulgare [9]): 0 | TRZ AW rating (Triticum aestivum [10]): 0 | SET VI rating (Setaria viridis [11]): 3 (16-29%) | CHE AL rating (Chenopodium album [12]): 4 (30-44%) | HOR VW rating (Hordeum vulgare [13]): 2 (6-15%) | GAL AP rating (Galium aparine [14]): 2 (6-15%) | ABU TH rating (Abutilon theophrasti [15]): 1 (1-5%) | ZEA MX rating (Zea mays [16]): 0 | ALO MY rating (Alopecurus myosuroides [17]): 1 (1-5%) | HEL AN rating (Helianthus annuus [18]): 3 (16-29%) | VER PE rating (Veronica persica [19]): 2 (6-15%) | IPO HE rating (Ipomoea hederacea [20]): 2 (6-15%) | TRZ AW rating (Triticum aestivum [21]): 2 (6-15%) | AMA RE rating (Amaranthus retroflexus [22]): 0 | ALO MY rating (Alopecurus myosuroides [23]): 0 | SET VI rating (Setaria viridis [24]): 0

COc1ccc(-c2nsc(C(=O)NC3CCCc4ccccc43)n2)cc1 (racemic) [Example 54]
CHE AL rating (Chenopodium album [1]): 0 | GAL AP rating (Galium aparine [2]): 0 | ABU TH rating (Abutilon theophrasti [3]): 0 | ZEA MX rating (Zea mays [4]): 0 | HEL AN rating (Helianthus annuus [5]): 0 | VER PE rating (Veronica persica [6]): 0 | IPO HE rating (Ipomoea hederacea [7]): 0 | AMA RE rating (Amaranthus retroflexus [8]): 0 | HOR VW rating (Hordeum vulgare [9]): 0 | TRZ AW rating (Triticum aestivum [10]): 0 | SET VI rating (Setaria viridis [11]): 3 (16-29%) | CHE AL rating (Chenopodium album [12]): 2 (6-15%) | HOR VW rating (Hordeum vulgare [13]): 3 (16-29%) | GAL AP rating (Galium aparine [14]): 3 (16-29%) | ABU TH rating (Abutilon theophrasti [15]): 2 (6-15%) | ZEA MX rating (Zea mays [16]): 4 (30-44%) | ALO MY rating (Alopecurus myosuroides [17]): 2 (6-15%) | HEL AN rating (Helianthus annuus [18]): 4 (30-44%) | VER PE rating (Veronica persica [19]): 0 | IPO HE rating (Ipomoea hederacea [20]): 2 (6-15%) | TRZ AW rating (Triticum aestivum [21]): 1 (1-5%) | AMA RE rating (Amaranthus retroflexus [22]): 0 | ALO MY rating (Alopecurus myosuroides [23]): 0 | SET VI rating (Setaria viridis [24]): 0
